Patent US11905306B2 (priority 2021, dated 2024)

Experiments:
[1] = in vitro; conditions: African green monkey
[2] = system: USA_WA1/2020 SARS CoV-2; assay: microbe, parasite or virus in culture; format: cell-based; conditions: Severe acute respiratory syndrome coronavirus 2, Vero C1008, 72 h, read-out: SARS-2 EC50 (μM) VeroE6
[3] = system: Toronto 2 SARS CoV-1; assay: organism not typed; format: cell-based; conditions: Vero C1008, 72 h, read-out: SARS-1 EC50 (μM) VeroE6

SMILES	CC50 [1] [µM]	EC50 [2] [µM]	EC50 [3] [µM]
CCC(=O)Nc1ccc(C(=O)Nc2cccc(C#Cc3ccccn3)c2)cc1 [Compound 6, 4-Propionamido-N-(3-(pyridin-2-ylethynyl)phenyl)benzamide]	> 30	1.01	0.92
Cc1nc2ccc(C(=O)Nc3cccc(C#Cc4ccccn4)c3)cc2o1 [Compound 34, 2-Methyl-N-(3-(pyridin-2-ylethynyl)phenyl)benzo[d]oxazole-6-carboxamide]	26.1	2.11	2.01
CCN(C(C)=O)c1ccc(NC(=O)c2cccc(C#Cc3ccccn3)c2)cc1 [Compound 56, N-(4-(N-ethylacetamido)phenyl)-3-(pyridin-2-ylethynyl)benzamide]	> 30	1.58	1.11
O=C(Nc1ccc(NC(=O)N2CCC2)cc1)c1cccc(C#Cc2ccccn2)c1 [Compound 60, N-(4-(3-(pyridin-2-ylethynyl)benzamido)phenyl)azetidine-1-carboxamide]	> 30	7.75	3.93
O=C(Nc1cc(C#Cc2ccccn2)cc(OCC2CC2)c1)c1ccc(N2CCCCC2=O)cc1 [Compound 53, N-(3-(Cyclopropylmethoxy)-5-(pyridin-2-ylethynyl)phenyl)-4-(2-oxopiperidin-1-yl)benzamide]	> 30	0.18	0.062
O=C1Nc2ccc(C(=O)Nc3cccc(C#Cc4ccccn4)c3)cc2CO1 [Compound 3, Oxo-N-(3-(pyridin-2-ylethynyl)phenyl)-1,4-dihydro-2H-benzo[d][1,3]oxazine-6-carboxamide]	15.8	11.6	> 30
CN1CCN(c2ccc(C(=O)Nc3cccc(C#Cc4ccccn4)c3)cc2)C1=O [Compound 16, 4-(3-Methyl-2-oxoimidazolidin-1-yl)-N-(3-(pyridin-2-ylethynyl)phenyl)benzamide]	> 30	1.28	0.75
CC(=O)Nc1ccc(NC(=O)c2cccc(C#Cc3ccccn3)c2)cc1 [Compound 55, N-(4-acetamidophenyl)-3-(pyridin-2-ylethynyl)benzamide]	> 30	4.18	2.82
O=C(Nc1ccc(C(=O)Nc2cccc(C#Cc3ccccn3)c2)cc1)c1ccc(O)cc1 [Compound 28, 4-Hydroxy-N-(4-((3-(pyridin-2-ylethynyl)phenyl)carbamoyl)phenyl)benzamide]	> 30	> 30	17.1
O=C(Nc1cccc(C#Cc2ccccn2)c1)c1ccc(NC(=O)N2CCOCC2)cc1 [Compound 13, N-(4-((3-(Pyridin-2-ylethynyl)phenyl)carbamoyl)phenyl)morpholine-4-carboxamide]	> 40	8.25	7.94
O=C(Nc1cccc(C#Cc2ccccn2)c1)c1ccc(N2CCCNC2=O)cc1 [Compound 15, 4-(2-Oxotetrahydropyrimidin-1(2H)-yl)-N-(3-(pyridin-2-ylethynyl)phenyl)benzamide]	> 30	7.81	9.71
COc1cc(C#Cc2ccccn2)cc(NC(=O)c2ccc3c(c2)CCCC(=O)N3)c1 [Compound 51, N-(3-Methoxy-5-(pyridin-2-ylethynyl)phenyl)-2-oxo-2,3,4,5-tetrahydro-1H-benzo[b]azepine-7-carboxamide]	12.2	0.52	0.51
O=C(Nc1cccc(C#Cc2ccccn2)c1)c1ccc(N2CCCCS2(=O)=O)cc1 [Compound 77]	> 30	0.957	0.791
N#Cc1cc(C#Cc2ccccn2)cc(NC(=O)c2ccc(N3CCCCC3=O)cc2)c1 [Compound 78]	> 30	1.97	1.54
O=C(Nc1ccc(N2CCCS2(=O)=O)cc1)c1cccc(C#Cc2ccccn2)c1 [Compound 74, N-(4-(1,1-dioxidoisothiazolidin-2-yl)phenyl)-3-(pyridin-2-ylethynyl)benzamide]	> 30	> 30	0.91
O=C(Nc1cccc(C#Cc2ccccn2)c1)c1ccc(N2CCCCCC2=O)cc1 [Compound 25, 4-(2-Oxoazepan-1-yl)-N-(3-(pyridin-2-ylethynyl)phenyl)benzamide]	> 30	1.09	0.52
O=C(Nc1cccc(C#Cc2ccccn2)c1)c1ccc(-c2nnco2)cc1 [Compound 41, 4-(1,3,4-Oxadiazol-2-yl)-N-(3-(pyridin-2-ylethynyl)phenyl)benzamide]	> 30	1.54	0.93
CC(=O)Nc1ccc(NC(=O)c2cccc(C#Cc3ccccn3)c2)cn1 [Compound 71, N-(6-acetamidopyridin-3-yl)-3-(pyridin-2-ylethynyl)benzamide]	> 30	4.13	3.98
CCCC(=O)Nc1ccc(C(=O)Nc2cccc(C#Cc3ccccn3)c2)cc1 [Compound 7, 4-Butyramido-N-(3-(pyridin-2-ylethynyl)phenyl)benzamide]	> 30	0.26	0.16
O=C(Nc1cccc(C#Cc2ccccn2)c1)c1ccc(C(=O)NC2CCCC2)cc1 [Compound 39, N^1-cyclopentyl-N^4-(3-(pyridin-2-ylethynyl)phenyl)terephthalamide]	> 40	1	0.53
O=C(Nc1cccc(C#Cc2ccccn2)c1)c1ccc(N2CCC2=O)cc1 [Compound 20, 4-(2-oxoazetidin-1-yl)-N-(3-(pyridin-2-ylethynyl)phenyl)benzamide]	> 30	11.7	2.12
NC(=O)Nc1ccc(C(=O)Nc2cccc(C#Cc3ccccn3)c2)cc1 [Compound 12, N-(3-(pyridin-2-ylethynyl)phenyl)-4-ureidobenzamide]	> 30	> 30	> 30
CC(=O)Nc1ccc(-c2nc3ccc(C#Cc4ccccn4)cc3[nH]2)cc1 [Compound 49, N-(4-(5-(Pyridin-2-ylethynyl)-1H-benzo[d]imidazol-2-yl)phenyl)acetamide]	> 30	> 30	> 30
O=C(Nc1cccc(C#Cc2ccccn2)c1)c1ccc(N2CC3(CCC3)C2=O)cc1 [Compound 35, 4-(1-Oxo-2-azaspiro[3.3]heptan-2-yl)-N-(3-(pyridin-2-ylethynyl)phenyl)benzamide]	> 30	1.64	0.43
COc1cc(C#Cc2ccccn2)cc(C(=O)Nc2ccc(CC3CC(=O)NC3=O)cc2)c1 (stereo not drawn) [Compound 79]	> 30	8.19	4.45
O=C(Nc1cccc(C#Cc2ccccn2)c1)c1ccc(C(=O)NC2CCC2)cc1 [Compound 38, N^1-cyclobutyl-N^4-(3-(pyridin-2-ylethynyl)phenyl)terephthalamide]	> 30	1.64	0.75
Nc1cc(C#Cc2ccccn2)cc(NC(=O)c2ccc(N3CCCCC3=O)cc2)c1 [Compound 52, N-(3-Amino-5-(pyridin-2-ylethynyl)phenyl)-4-(2-oxopiperidin-1-yl)benzamide]	> 30	26	26
O=C(Nc1ccc(C(=O)NC2CCCC2)cc1)c1cccc(C#Cc2ccccn2)c1 [Compound 62, N-(4-(cyclopentylcarbamoyl)phenyl)-3-(pyridin-2-ylethynyl)benzamide]	> 30	0.48	> 30
